The values below come from US8399444B2, “Bicyclic imidazole as DP1 receptor antagonists” (GlaxoSmithKline Intellectual Property Development Ltd., priority 2008, dated 2013).

Values joined by “and” are separate entries in the source; they are usually repeats but may differ in a detail not shown here. Equal values may be shown once. Where a name gives a salt, the structure may show the parent alone.

In one assay the test system is allergic rhinitis model. The settings on record: oral administration, guinea pig; cited from earlier work.
The next assay concerns asthma model. The note with it: guinea pig; cited from earlier work.
A further assay concerns the target T1, Prostanoid DP1 receptor (Homo sapiens, UniProt Q13258).
T1 construct: expressed in transfected cells; host or cells: CHO K1
T1 sequence (Q13258 1-359): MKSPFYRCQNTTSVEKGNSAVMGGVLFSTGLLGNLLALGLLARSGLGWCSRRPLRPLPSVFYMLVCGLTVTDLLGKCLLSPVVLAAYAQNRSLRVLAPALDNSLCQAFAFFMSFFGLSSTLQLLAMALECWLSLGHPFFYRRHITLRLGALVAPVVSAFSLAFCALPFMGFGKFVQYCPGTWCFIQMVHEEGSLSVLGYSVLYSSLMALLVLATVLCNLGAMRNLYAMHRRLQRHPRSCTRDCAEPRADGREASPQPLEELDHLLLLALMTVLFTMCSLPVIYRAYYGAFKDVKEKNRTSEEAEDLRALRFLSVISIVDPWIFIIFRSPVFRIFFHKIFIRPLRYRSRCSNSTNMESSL
Put plainly: Measurement of cAMP using TR-FRET LANCE assay: Prostanoid DP1. The assay is classed as cell-based. The settings on record: CHO cells expressing DP1 receptor, antagonism of PGD2 (EC80) cAMP response; read-out: pKi value (converted). As to the method: CHO K1 cells, stably expressing the Prostanoid DP1 receptor, were maintained in culture in DMEM/F12, supplemented with 5% FBS, 2 mM L-glutamine, 400 μg/mL hygromycin B in 95%: 5% air: CO2 at 37° C. Following harvest from culture, cells were centrifuged at 250 g at 4° C. for 10 minutes and re-suspended in ice cold dialysed FCS. Once the cells were in mono-suspension they were slowly mixed with an equal volume of ice cold 80% dialysed FCS: 20% DMSO (pre-mixed and chilled several hours earlier). The cells were then aliquoted into 1 mL tubes within a 96 well block (pre-cooled to 4° C.). Once sealed, the tubes were frozen in a controlled rate freezer. The frozen cells were then transferred to a −140° C. freezer for long term storage.
Measurement of cAMP Using TR-FRET LANCE™ Assays: Prostanoid DP1
The potency of the compounds were determined using a LANCE™ cAMP assay kit as per the kit instructions. Briefly, CHO cells expressing DP1 receptor were thawed at 37° C., diluted in PBS and centrifuged at 1000 RPM for 5 minutes. Cells were then re-suspended (2 million cells/mL) in stimulation buffer (HBSS containing 0.01% BSA, 500 μM FAC IBMX, 5 mmol/L HEPES adjusted to pH 7.4 with KOH.
Briefly, cells were added (10,000 cells/well at 5 μL addition) to low volume white Greiner polypropylene 384-well plate assay plates containing 0.1 μl test compound. Following a 15 minute incubation at room temperature, 5 μl of antibody solution (stimulation buffer containing Alexia fluor 647) containing PGD2 at twice the determined EC80 concentration was added. Plates were incubated for a further 30 minutes at room temperature then detection mixture was added (kit components; detection buffer, europiumW8044-labelled streptavidin and biotin cAMP at 10 μl/well). Plates were covered and incubated the room temperature for 1 hour before reading on a Viewlux Microplate Imager using TR-FRET label settings.
All compounds were dissolved in DMSO at a concentration of 10 mM and were prepared in 100% DMSO using a 1 in 4 dilution step to provide 11-point concentration—response curves. The dilutions were transferred to the assay plates ensuring that the DMSO concentration was constant across the plate at 1% for all assays.
All data were normalised to the mean of 16 high and 16 low control wells on each plate. A four parameter curve fit of the following form was then applied.
Where a is the minimum, b is the Hill slope, c is the XC50, and d is the maximum. Data are presented as the mean pXC50 (negative log 10 of the molar XC50) with the standard deviation (SD) of number of tests in the experiments.
In general terms: Time-resolved FRET reads energy transfer from a long-lived donor to a nearby acceptor.

`CC1(C)[C@H]2C[C@H](C/C=C\CCCC(=O)O)[C@@H](NC(=O)c3csc4ccc(O)cc34)[C@@H]1C2` [Example S-5751]: the “early and late nasal responses” value in the assay with allergic rhinitis model is given as “inhibited”. In addition, in the assay with asthma model, the “antigen-induced eosinophil infiltration into the lung” value is “alleviated”.
As to `CC(C)c1nc2c(n1Cc1ccc(Cl)c(Cl)c1)C(CC(=O)O)CCC2` (stereo not shown) [Example 29, [1-[(3,4-dichlorophenyl)methyl]-2-(1-methylethyl)-4,5,6,7-tetrahydro-1H-benzimidazol-7-yl]acetic acid trifluoroacetic acid salt], the Ki at Prostanoid DP1 receptor was at most 10 nM.
Consider `CC(C)c1nc2c(n1Cc1ccc(Cl)c(Cl)c1)[C@@H](CC(=O)O)CCC2` [Example 40, [(7R)-1-[(3,4-dichlorophenyl)methyl]-2-(1-methylethyl)-4,5,6,7-tetrahydro-1H-benzimidazol-7-yl]acetic acid], for which the Ki on Prostanoid DP1 receptor is ≤ 100 nM and ≤ 10 nM and ~2.51 nM.
For the compound `CC(C)c1nc2c(n1Cc1ccc(Cl)c(Cl)c1)C(CC(=O)O)CCC2` (single isomer, unassigned; isomer 2) [Example 20, (−)-[1-[3,4-dichlorophenyl)methyl]-2-(1-methylethyl)-4,5,6,7-tetrahydro-1H-benzimidazol-7-yl]acetic acid ammonia salt (Isomer 2)], at Prostanoid DP1 receptor, the Ki is ≤ 100 nM and ≤ 10 nM and ~2 nM.
On to `CC(C)c1nc2c(n1Cc1ccc(Cl)cc1)C(CC(=O)O)CCC2` (stereo not shown) [Example 27, [1-[(4-chlorophenyl)methyl]-2-(1-methylethyl)-4,5,6,7-tetrahydro-1H-benzimidazol-7-yl]acetic acid ammonia salt], for which the Ki at Prostanoid DP1 receptor was at most 100 nM.
Still for that read-out and setting: the value for `CC(C)c1nc2c(n1Cc1ccc(Cl)c(Cl)c1)C(CC(=O)O)CC2` (single isomer, unassigned; isomer 1) [Example 10, (+)-[3-[(3,4-dichlorophenyl)methyl]-2-(1-methylethyl)-3,4,5,6-tetrahydrocyclopenta[d]imidazol-4-yl]acetic acid ammonia salt (Isomer 1)] was at most 10 nM.
